Results taken from publication PMC8468039, “Development of New Meridianin/Leucettine-Derived Hybrid Small Molecules as Nanomolar Multi-Kinase Inhibitors with Antitumor Activity” (Biomedicines, 2021).
“And” between values parts separate entries of the source, which are not always exact repeats. Identical values can stand only once. Like-named read-outs stand apart in the source and are kept apart here.

Experiments:
FMS = biological target: T1, FMS (Homo sapiens, UniProt P07333); assay: In vitro kinase inhibition assay (HotSpot, Reaction Biology); format: biochemical; settings: for inhibition at 10 µM: read-out: Percent Inhibition, FMS
T1 construct: purchased Reaction Biology Corp
Description: (§1) The in vitro kinase inhibition assay was carried out by Reaction Biology Corp. (Reaction Biology Corp., Chester, PA, USA) Kinase HotSpot^SM service (http://www.reactionbiology.com, accessed on 15 January 2021), following the previously reported methods. (For details, see Supplementary Material).
(§2) As mentioned in the introduction, to get insights about the kinase inhibition profile of the hybrid small molecule 5a, an in vitro screening over a panel of 14 cancer-related kinases was carried out. Accordingly, 10 µM concentrations of compound 5a were used in a kinase inhibition assay over various kinase groups and families in the presence of 10 µM ATP using HotSpotSM technology. To get a comprehensive picture of the inhibitory activities of the tested compound (5a) against the kinase panel, data are illustrated in Table 1. […] Compound 5a was also able to suppress the kinase activity of the epidermal growth factor receptor (EGFR), platelet-derived growth factor receptor-alpha (PDGFRα), and cyclin-dependent kinase 2 (CDK2) with modest inhibition values of 26.99 ± 0.9, 24.0 ± 0.4, and 20.1 ± 0.1%, respectively. […] Several studies have confirmed direct relationships between the most affected kinases (FMS, LCK, LYN, and DAPK1) and different human disorders including cancer.
(§3) 5. Protocol of Kinase assay
(§4) Kinases inhibitory activities were assessed by the HotSpot assay platform, which contained specific kinase/substrate pairs along with required cofactors. Base reaction buffer: 20 mM Hepes (pH 7.5), 10 mM MgCl2, 1 mM EGTA, 0.02% Brij35, 0.02 mg/ml BSA, 0.1 mM Na3VO4, 2 mM DTT, 1% DMSO. Testing compounds were dissolved in 100% DMSO to specific concentration. The serial dilution was conducted by Integra Viaflo Assist in DMSO. The reaction mixture containing the examined compound and 33P-ATP was incubated at room temperature for 2h and radioactivity was detected by filter-binding method. Kinase activity data were expressed as the percent remaining kinase activity in test samples compared to vehicle (dimethyl sulfoxide) reactions. IC50 values and curve fits were obtained using Prism (GraphPad Software).

DAPK1 = biological target: T2, DAPK1 (Homo sapiens, UniProt P53355); assay: as above; format: biochemical; settings: single dose of 10 µM; read-out: Percent Inhibition, DAPK1
T2 construct: purchased Reaction Biology Corp
Description: as §1, §2, §3, §4
(§5) 6. Biology raw data for IC50 determination
(§6) Paper ID Cpd ID NSC Number

LCK = biological target: T3, LCK (Homo sapiens, UniProt P06239); assay: as above; format: biochemical; settings: for inhibition at 10 µM: single dose of 10 µM, 10 µM ATP as printed, read-out: Percent Inhibition, LCK
T3 construct: purchased Reaction Biology Corp
Description: as §1, §2, §3, §4, §5, §6

LYN = biological target: T4, LYN (Homo sapiens, UniProt P07948); assay: as above; format: biochemical; settings: for inhibition at 10 µM: single dose of 10 µM, 10 µM ATP as printed, read-out: Percent Inhibition, LYN
T4 construct: purchased Reaction Biology Corp
Description: as §1, §2, §3, §4, §5, §6

A498 = assay: NCI growth inhibition (SRB) assay; format: cell-based; settings: Homo sapiens, A498, Renal Cancer, single dose 10 µM, 48 h, read-out: Percent Growth Inhibition (GI)
Description: (§7) The antitumor assay was performed according to the protocol of the Drug Evaluation Branch, NCI, Bethesda. A 48 h drug exposure protocol was adopted, and sulforhodamine B (SRB) assay was utilized to assess the cell growth and viability, as reported earlier.
(§8) The inhibition results of tumor cell growth by the newly synthesized compounds (5a–5g) are described in Table 4. The reported measurements have been performed at the NIH National Cancer Institute, USA by a standardized assay including a panel of 60 different tumor cell lines (Supplementary Data). The following cancer cell types were included in these assays: Leukemia, non-small cell lung cancer, colon cancer, CNS cancer, melanoma, ovarian cancer, renal cancer, prostate, and breast cancer. […] Additionally, the 3,4-dimethoxy substituted compound (5b) also suffered poor activity against the cancer cell lines.

ACHN = assay: NCI growth inhibition (SRB) assay; format: cell-based; settings: Homo sapiens, Renal Cancer, single dose 10 µM, 48 h, read-out: Percent Growth Inhibition (GI)
Description: as §7, §8

CAKI-1 = assay: NCI growth inhibition (SRB) assay; format: cell-based; settings: Homo sapiens, CAKI-1, Renal Cancer, single dose 10 µM, 48 h, read-out: Percent Growth Inhibition (GI)
Description: as §7, §8

CCRF-CEM = assay: NCI growth inhibition (SRB) assay; format: cell-based; settings: Homo sapiens, Leukemia, single dose 10 µM, 48 h, read-out: Percent Growth Inhibition (GI)
Description: as §7, §8

HCT-15 = assay: NCI growth inhibition (SRB) assay; format: cell-based; settings: Homo sapiens, HCT-15, Colon Cancer, single dose 10 µM, 48 h, read-out: Percent Growth Inhibition (GI)
Description: as §7, §8

HL-60(TB) = assay: NCI growth inhibition (SRB) assay; format: cell-based; settings: Homo sapiens, Leukemia, single dose 10 µM, 48 h, read-out: Percent Growth Inhibition (GI)
Description: as §7, §8

HS 578T = assay: NCI growth inhibition (SRB) assay; format: cell-based; settings: Homo sapiens, Breast Cancer, single dose 10 µM, 48 h, read-out: Percent Growth Inhibition (GI)
Description: as §7, §8

HT29 = assay: NCI growth inhibition (SRB) assay; format: cell-based; settings: Homo sapiens, HT-29, HT29, Colon Cancer, single dose 10 µM, 48 h, read-out: Percent Growth Inhibition (GI)
Description: as §7, §8

IGROV1 = assay: NCI growth inhibition (SRB) assay; format: cell-based; settings: Homo sapiens, IGROV-1, IGROV1, Ovarian Cancer, single dose 10 µM, 48 h, read-out: Percent Growth Inhibition (GI)
Description: as §7, §8

K-562 = assay: NCI growth inhibition (SRB) assay; format: cell-based; settings: Homo sapiens, K562, K-562, Leukemia, single dose 10 µM, 48 h, read-out: Percent Growth Inhibition (GI)
Description: as §7, §8

MCF7 = assay: NCI growth inhibition (SRB) assay; format: cell-based; settings: Homo sapiens, MCF7, Breast Cancer, single dose 10 µM, 48 h, read-out: Percent Growth Inhibition (GI)
Description: as §7, §8

PC-3 = assay: NCI growth inhibition (SRB) assay; format: cell-based; settings: Homo sapiens, PC-3, Prostate Cancer, single dose 10 µM, 48 h, read-out: Percent Growth Inhibition (GI)
Description: as §7, §8

RPMI-8226 = assay: NCI growth inhibition (SRB) assay; format: cell-based; settings: Homo sapiens, RPMI-8226, Leukemia, single dose 10 µM, 48 h, read-out: Percent Growth Inhibition (GI)
Description: as §7, §8

RXF 393 = assay: NCI growth inhibition (SRB) assay; format: cell-based; settings: RXF 393, Renal Cancer, single dose 10 µM; for inhibition at 10 µM: Homo sapiens, read-out: Percent Growth Inhibition (GI)
Description: as §7, §8

SR = assay: NCI growth inhibition (SRB) assay; format: cell-based
Description: as §7, §8

UACC-62 = assay: NCI growth inhibition (SRB) assay; format: cell-based; settings: Homo sapiens, UACC-62, Melanoma, single dose 10 µM, 48 h, read-out: Percent Growth Inhibition (GI)
Description: as §7, §8

[1] = 10-dose, 3-fold serial dilution starting at 100 μM
[2] = single dose of 10 µM, 10 µM ATP as printed
[3] = Homo sapiens, Leukemia, single dose 10 µM, 48 h, read-out: Percent Growth Inhibition (GI)

T1 sequence (P07333 20-972): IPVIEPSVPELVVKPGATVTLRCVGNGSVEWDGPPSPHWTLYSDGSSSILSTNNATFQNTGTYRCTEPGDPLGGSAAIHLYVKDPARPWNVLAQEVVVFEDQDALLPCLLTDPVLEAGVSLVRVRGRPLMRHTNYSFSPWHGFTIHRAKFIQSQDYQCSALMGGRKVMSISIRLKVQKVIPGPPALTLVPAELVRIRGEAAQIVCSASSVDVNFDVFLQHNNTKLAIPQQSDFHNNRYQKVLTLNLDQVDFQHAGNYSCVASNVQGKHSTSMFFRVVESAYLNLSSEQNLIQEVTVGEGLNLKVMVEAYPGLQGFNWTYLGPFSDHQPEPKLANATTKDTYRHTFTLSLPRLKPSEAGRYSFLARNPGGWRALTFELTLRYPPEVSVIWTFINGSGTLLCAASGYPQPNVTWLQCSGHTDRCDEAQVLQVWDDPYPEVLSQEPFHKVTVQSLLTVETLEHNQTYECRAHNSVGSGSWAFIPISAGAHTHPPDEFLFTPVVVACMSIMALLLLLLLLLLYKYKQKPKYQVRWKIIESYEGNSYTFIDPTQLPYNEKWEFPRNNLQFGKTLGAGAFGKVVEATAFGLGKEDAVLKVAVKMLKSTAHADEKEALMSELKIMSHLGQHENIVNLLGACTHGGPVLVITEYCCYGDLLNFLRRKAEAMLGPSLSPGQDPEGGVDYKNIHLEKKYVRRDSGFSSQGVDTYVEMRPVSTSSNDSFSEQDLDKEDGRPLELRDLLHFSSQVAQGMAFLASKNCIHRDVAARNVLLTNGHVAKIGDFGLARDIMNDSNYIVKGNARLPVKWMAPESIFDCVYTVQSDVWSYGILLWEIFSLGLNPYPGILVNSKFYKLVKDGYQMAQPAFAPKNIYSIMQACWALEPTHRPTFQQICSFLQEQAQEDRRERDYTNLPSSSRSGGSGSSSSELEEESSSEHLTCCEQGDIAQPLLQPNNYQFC
T2 sequence (P53355 whole entry): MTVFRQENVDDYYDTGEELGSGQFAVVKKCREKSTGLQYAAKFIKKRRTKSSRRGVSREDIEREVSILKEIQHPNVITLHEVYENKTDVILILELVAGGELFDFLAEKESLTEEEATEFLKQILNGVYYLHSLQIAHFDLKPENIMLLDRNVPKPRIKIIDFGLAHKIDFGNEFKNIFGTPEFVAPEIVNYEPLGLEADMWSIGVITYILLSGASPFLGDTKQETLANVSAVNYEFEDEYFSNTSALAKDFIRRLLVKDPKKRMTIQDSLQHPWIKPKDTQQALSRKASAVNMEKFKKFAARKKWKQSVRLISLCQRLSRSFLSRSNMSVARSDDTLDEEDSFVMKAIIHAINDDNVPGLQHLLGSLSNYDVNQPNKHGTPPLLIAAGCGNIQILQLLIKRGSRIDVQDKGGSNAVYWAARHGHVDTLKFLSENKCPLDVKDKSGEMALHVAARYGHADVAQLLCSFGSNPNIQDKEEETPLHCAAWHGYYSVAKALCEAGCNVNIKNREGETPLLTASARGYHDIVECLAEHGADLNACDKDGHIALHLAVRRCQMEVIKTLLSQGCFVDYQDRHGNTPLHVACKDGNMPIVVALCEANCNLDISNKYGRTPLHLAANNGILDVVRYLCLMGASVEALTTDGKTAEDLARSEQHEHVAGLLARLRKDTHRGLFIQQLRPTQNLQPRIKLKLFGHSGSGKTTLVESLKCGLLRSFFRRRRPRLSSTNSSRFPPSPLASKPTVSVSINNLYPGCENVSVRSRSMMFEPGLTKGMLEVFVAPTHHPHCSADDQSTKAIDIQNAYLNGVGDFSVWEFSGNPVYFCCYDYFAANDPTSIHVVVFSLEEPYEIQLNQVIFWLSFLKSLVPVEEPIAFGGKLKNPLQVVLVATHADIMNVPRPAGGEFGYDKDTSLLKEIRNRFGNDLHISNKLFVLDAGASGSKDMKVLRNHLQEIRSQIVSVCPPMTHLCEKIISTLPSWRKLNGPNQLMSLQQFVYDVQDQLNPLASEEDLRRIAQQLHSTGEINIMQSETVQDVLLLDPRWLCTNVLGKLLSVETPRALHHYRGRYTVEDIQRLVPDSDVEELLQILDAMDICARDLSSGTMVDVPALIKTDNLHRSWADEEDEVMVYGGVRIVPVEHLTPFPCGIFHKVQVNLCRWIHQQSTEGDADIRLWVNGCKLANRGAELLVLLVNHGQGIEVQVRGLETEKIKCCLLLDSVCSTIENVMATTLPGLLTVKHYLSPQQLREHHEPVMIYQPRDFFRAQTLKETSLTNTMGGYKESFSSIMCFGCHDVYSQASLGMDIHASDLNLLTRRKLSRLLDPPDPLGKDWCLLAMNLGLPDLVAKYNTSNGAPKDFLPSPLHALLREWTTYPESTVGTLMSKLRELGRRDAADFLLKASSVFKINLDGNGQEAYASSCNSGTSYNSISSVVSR
T4 sequence (P07948 whole entry): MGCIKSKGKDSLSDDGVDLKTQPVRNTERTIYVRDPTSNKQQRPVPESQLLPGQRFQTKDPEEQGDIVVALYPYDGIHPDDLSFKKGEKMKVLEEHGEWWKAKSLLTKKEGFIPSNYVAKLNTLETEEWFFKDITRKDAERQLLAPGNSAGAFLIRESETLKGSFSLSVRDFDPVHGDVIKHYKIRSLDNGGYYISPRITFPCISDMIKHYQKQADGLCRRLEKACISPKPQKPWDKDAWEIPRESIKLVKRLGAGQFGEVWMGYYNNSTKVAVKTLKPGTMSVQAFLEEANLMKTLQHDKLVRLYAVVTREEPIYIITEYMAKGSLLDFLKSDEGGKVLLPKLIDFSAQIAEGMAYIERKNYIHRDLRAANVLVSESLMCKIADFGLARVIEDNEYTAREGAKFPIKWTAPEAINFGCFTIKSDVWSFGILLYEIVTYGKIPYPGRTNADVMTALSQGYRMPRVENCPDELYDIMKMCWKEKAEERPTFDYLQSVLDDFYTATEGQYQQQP
T3 sequence (P06239 whole entry): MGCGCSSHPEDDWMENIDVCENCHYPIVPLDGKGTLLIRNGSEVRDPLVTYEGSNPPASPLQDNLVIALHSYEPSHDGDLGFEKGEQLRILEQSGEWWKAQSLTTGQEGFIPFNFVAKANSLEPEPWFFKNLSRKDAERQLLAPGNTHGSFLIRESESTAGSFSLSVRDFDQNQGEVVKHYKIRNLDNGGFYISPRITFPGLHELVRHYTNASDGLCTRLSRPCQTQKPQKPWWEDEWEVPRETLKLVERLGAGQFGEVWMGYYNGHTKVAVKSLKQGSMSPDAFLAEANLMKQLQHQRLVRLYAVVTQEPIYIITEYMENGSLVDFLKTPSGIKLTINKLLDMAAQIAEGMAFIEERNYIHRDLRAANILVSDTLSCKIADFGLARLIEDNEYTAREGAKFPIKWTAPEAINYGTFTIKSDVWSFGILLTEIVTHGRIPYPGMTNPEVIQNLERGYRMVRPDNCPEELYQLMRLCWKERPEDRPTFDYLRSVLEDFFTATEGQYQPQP

Compound | inhibition at 10 µM (DAPK1) | inhibition at 10 µM (LCK) | inhibition at 10 µM (LYN) | inhibition at 10 µM (A498) | inhibition at 10 µM (ACHN) | inhibition at 10 µM (CAKI-1) | inhibition at 10 µM (CCRF-CEM) | inhibition at 10 µM (HCT-15) | inhibition at 10 µM (HL-60(TB)) | inhibition at 10 µM (HS 578T) | inhibition at 10 µM (HT29) | inhibition at 10 µM (IGROV1) | inhibition at 10 µM (K-562) | inhibition at 10 µM (MCF7) | inhibition at 10 µM (PC-3) | inhibition at 10 µM (RPMI-8226) | inhibition at 10 µM (UACC-62) | inhibition at 10 µM (FMS; [2]) | inhibition at 10 µM (RXF 393; 48 h) | inhibition at 10 µM (SR; [3]) | also measured
COc1ccc(Oc2nc(Nc3ccc(N4CCOCC4)cc3)ncc2NC(=O)c2cccc(SC)c2)cc1 [5g, N-(4-(4-Methoxyphenoxy)-2-((4-morpholinophenyl)amino)pyrimidin-5-yl)-3-(methylthio)benzamide] | 54.6 ± 0.8% | 96.9 ± 0.3% | 96.4 ± 0.1% | 18.9% | 21.4% | 29.4% | 13% | 31.7% | 13.9% | 22.7% | 24.3% | 33.9% | 29.1% | 21.5% | 24.9% | 20.5% | 14.7% |  |  |  | IC50 (FMS; [1]): 110 ± 8 nM; fold more potent than imatinib over FMS (FMS; from IC50 values): ~ 9 fold and 9 fold; inhibition at 10 µM (FMS): 90.6 ± 0.8%; IC50 (LCK; [1]): 87.7 ± 8.3 nM; fold more potent than imatinib over LCK (LCK; from IC50 values): ~2 fold; IC50 (LYN; [1]): 169 ± 31 nM; inhibition at 10 µM (RXF 393; RXF 393, 48 h): 70%; Percent Growth Inhibition (GI) (RXF 393; 48 h): 70.1%; inhibition at 10 µM (SR; Homo sapiens, 48 h, Leukemia, single dose 10 µM, read-out: Percent Growth Inhibition (GI)): 60%; Percent Growth Inhibition (GI) (SR; Leukemia, single dose 10 µM, 48 h): 60.5%
COc1ccc(Oc2nc(Nc3ccc(N4CCOCC4)cc3)ncc2NC(=O)c2cc(OC)c(OC)c(OC)c2)cc1 [5c, 3,4,5-Trimethoxy-N-(4-(4-methoxyphenoxy)-2-((4-morpholinophenyl)amino)pyrimidin-5-yl)benzamide] | 50 ± 0.1% | 19.4 ± 0.9% | -1.6 ± 0.3% | 38.3% | 4.83% | 28.1% | 30.5% | 34.4% | 31% | 3.23% | 47.4% | 11.9% | 20.4% | 7.94% | 11.6% | 18.8% | -0.63% | 69.9 ± 0.4% | 50.6% | 64.4% | 
COc1ccc(Oc2nc(Nc3ccc(N4CCOCC4)cc3)ncc2NC(=O)c2ccc3c(c2)OCO3)cc1 [5a, N-(4-(4-Methoxyphenoxy)-2-((4-morpholinophenyl)amino)pyrimidin-5-yl)benzo[d][1,3]dioxole-5-carboxamide] | 55 ± 1.1% | 81.4 ± 0.6% | 75.2% | 22.4% | 8.91% | 33.9% | 14.5% | 26% | 16.2% | 6.26% | 28.3% | 5.92% | 23.4% | 8.51% | 11.7% | 21.8% | 7.38% | 82.5 ± 0.6% | 50.5% | 37.1% | 
COc1ccc(Oc2nc(Nc3ccc(N4CCOCC4)cc3)ncc2NC(=O)c2ccnc([N+](=O)[O-])c2)cc1 [5f, N-(4-(4-Methoxyphenoxy)-2-((4-morpholinophenyl)amino)pyrimidin-5-yl)-2-nitroisonicotinamide] | 65.5 ± 1.4% | 72.6 ± 0.6% | 34.1 ± 2.2% | 6.39% | 1.61% | 13.7% | 16.7% | 32.8% | -3.19% | 6.7% | -8.86% | 1.91% | 10.9% | 12.5% | 13.8% | 16.3% | 21.4% | 65.4 ± 0.1% | -0.36% | 27.4% | 
